The values that follow come from article PMC12155096 (International Journal of Molecular Sciences, 2025).

What is called AC50 is the concentration at which the activity in the assay is half-maximal.

Data set [1] addresses human CYP2D6 (Homo sapiens, UniProt P10635).
In data set [2] the target is human CYP2C9 (Homo sapiens, UniProt P11712).
In data set [3] the target is T1, human CYP1A2 (Homo sapiens, UniProt P05177).
T1 sequence (P05177 1-516): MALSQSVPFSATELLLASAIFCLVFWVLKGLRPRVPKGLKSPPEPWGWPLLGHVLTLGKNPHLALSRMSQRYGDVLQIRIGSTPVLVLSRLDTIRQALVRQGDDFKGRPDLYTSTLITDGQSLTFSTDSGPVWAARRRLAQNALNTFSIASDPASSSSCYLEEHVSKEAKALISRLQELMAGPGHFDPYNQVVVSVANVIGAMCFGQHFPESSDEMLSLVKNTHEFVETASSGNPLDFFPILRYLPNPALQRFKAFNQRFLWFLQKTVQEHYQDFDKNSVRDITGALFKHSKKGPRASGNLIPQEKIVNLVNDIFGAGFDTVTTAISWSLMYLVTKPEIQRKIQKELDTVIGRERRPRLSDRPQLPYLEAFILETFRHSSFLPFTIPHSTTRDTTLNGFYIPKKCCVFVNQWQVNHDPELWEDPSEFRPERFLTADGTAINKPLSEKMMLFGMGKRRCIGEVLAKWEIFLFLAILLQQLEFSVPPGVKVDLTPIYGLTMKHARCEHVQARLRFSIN

The target in data set [4] is human CYP2C19 (Homo sapiens, UniProt P33261).
In data set [5] the target is Photinus pyralis (firefly) luciferase (Photinus pyralis, UniProt P08659). The experiment in a line: biochemical. Conditions: for IC50: read-out: Luciferase IC50 (half-maximal inhibitory concentration). Format: biochemical.
Data set [6] concerns the target CYP3A4 (Homo sapiens, UniProt P08684).

Sequence of CYP3A4 (P08684 whole entry): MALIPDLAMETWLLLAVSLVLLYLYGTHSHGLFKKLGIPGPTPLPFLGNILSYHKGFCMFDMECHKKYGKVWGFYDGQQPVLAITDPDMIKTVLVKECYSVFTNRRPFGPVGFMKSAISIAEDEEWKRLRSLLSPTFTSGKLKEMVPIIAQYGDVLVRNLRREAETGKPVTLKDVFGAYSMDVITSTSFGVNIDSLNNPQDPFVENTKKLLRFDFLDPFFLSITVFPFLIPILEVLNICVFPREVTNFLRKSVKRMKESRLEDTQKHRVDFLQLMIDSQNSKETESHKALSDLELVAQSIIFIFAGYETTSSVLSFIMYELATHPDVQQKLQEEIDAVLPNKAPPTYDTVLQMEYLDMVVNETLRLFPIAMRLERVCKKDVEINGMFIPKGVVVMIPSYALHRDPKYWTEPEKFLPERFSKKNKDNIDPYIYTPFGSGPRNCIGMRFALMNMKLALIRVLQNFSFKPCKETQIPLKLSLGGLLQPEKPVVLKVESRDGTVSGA
Sequence of human CYP2C9 (P11712 whole entry): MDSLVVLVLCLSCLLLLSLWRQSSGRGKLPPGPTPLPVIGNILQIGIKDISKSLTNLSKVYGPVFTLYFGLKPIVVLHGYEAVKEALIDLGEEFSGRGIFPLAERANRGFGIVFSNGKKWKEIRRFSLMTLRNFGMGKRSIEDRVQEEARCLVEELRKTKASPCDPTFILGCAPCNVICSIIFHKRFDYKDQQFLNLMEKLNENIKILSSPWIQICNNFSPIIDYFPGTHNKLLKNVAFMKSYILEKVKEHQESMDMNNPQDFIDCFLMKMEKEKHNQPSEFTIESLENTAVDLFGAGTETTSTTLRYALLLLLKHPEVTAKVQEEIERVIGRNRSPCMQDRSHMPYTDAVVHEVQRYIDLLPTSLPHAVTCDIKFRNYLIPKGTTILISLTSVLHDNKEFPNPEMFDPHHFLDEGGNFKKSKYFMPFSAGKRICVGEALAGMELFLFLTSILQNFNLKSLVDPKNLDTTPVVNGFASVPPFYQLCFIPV
Sequence of human CYP2C19 (P33261 whole entry): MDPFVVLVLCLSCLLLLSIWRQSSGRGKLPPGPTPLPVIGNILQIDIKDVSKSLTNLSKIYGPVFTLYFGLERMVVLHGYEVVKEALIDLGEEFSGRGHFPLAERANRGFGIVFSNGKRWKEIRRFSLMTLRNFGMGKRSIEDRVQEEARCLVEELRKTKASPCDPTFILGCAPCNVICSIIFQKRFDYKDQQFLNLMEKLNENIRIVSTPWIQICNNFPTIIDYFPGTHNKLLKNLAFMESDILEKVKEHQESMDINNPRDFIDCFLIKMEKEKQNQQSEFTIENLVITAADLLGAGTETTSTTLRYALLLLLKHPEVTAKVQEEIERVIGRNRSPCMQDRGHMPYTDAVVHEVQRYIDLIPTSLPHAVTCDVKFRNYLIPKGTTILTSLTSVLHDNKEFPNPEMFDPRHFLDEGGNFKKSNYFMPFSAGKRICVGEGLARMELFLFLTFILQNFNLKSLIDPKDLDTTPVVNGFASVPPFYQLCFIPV
Sequence of human CYP2D6 (P10635 whole entry): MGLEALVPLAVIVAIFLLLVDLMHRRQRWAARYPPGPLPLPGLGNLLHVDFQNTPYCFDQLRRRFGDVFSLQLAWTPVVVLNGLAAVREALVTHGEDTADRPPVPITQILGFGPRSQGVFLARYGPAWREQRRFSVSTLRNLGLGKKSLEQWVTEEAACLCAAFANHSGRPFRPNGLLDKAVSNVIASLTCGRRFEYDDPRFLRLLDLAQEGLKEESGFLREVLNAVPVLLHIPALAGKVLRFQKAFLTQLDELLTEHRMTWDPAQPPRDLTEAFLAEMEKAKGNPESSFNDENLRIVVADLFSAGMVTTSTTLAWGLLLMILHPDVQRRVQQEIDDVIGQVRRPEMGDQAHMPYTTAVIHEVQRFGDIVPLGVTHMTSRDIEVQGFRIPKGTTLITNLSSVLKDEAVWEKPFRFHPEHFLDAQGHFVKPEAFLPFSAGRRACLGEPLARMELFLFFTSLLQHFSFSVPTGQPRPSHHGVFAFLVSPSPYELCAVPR
Sequence of Photinus pyralis (firefly) luciferase (P08659 whole entry): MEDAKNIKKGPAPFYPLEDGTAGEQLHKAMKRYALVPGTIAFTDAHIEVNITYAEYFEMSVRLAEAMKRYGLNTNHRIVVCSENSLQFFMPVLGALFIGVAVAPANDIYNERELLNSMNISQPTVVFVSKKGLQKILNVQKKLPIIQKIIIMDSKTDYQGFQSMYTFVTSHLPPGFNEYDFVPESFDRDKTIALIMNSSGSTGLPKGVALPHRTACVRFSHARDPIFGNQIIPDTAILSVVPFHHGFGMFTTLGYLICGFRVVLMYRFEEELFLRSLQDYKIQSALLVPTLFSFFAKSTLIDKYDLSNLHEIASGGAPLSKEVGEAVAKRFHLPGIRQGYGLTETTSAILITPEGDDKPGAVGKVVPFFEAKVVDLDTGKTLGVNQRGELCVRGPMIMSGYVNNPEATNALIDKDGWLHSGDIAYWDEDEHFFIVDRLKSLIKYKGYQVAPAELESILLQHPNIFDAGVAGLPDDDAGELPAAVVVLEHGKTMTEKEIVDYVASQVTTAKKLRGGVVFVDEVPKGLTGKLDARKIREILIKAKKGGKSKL

On to `C[C@H]1CCC[C@H](O)CCCCCc2cc(O)cc(O)c2C(=O)O1` [Zearalanol], for which the IC50 was found to be 57 µM in data set [1]; 27.3 µM in data set [2]; 33.4 µM in data set [3]; 19.5 µM in data set [4]; 1 µM in data set [6]. The “Luciferase IC50 (half-maximal inhibitory concentration)” value in data set [5] was “Inactive”.
As to `CCCCCCCCCCCCCC[P+](CCCCCC)(CCCCCC)CCCCCC.O=S(=O)([N-]S(=O)(=O)C(F)(F)F)C(F)(F)F`, the IC50 in data set [1] was 0.25 µM; in data set [2] it was 6.41 µM; in data set [3], 37 µM; in data set [4], 43.7 µM; in data set [6] it was 3.13 µM. For the same molecule, the “Luciferase IC50 (half-maximal inhibitory concentration)” value in data set [5] is “Inactive”.
`Cc1ccc([N+](=O)[O-])[c]2c1[O][Hg]2` [Nitromersol]: in data set [1], the “CYP2D6 Efficacy (in parenthesis)” value is 0.78 ± 0.09 (-101 ± 2) % and the IC50 amounted to 0.78 µM. Also, in data set [2], the “CYP2C9 Efficacy (in parenthesis)” value is recorded as 0.87 ± 0 (-104 ± 2) % and the IC50 was determined as 0.87 µM. Besides, in data set [3], the “CYP1A2 Efficacy (in parenthesis)” value is given as 4.36 ± 1.13 (-86 ± 7) % and the IC50 is 4.36 µM. In addition, in data set [4], the “CYP2C19 Efficacy (in parenthesis)” value is recorded as 1.28 ± 0.79 (-139 ± 25) % and the IC50 stood at 1.28 µM. In data set [5], the “Luciferase Efficacy (in parenthesis)” value was 12.48 ± 4.81 (-100 ± 9) % and the IC50 stood at 12.5 µM. Moreover, in data set [6], the “CYP3A4 Efficacy (in parenthesis)” value is recorded as 8.08 ± 0.55 (-86 ± 6) % and the IC50 is 8.08 µM.
Regarding `CC[C@H]1C[C@@H]2C[C@H]3c4[nH]c5ccc(OC)cc5c4CCN(C2)[C@@H]13.Cl` [Ibogaine hydrochloride], the “CYP2D6 Efficacy” value in data set [1] was 0.76 ± 0.1 (-105 ± 7) %. Further, the “CYP2C9 Efficacy” value in data set [2] is 44.07 ± 15.72 (-45 ± 10) %. Further, the IC50 in data set [3] is 61.5 µM; in data set [4], 83.1 µM; in data set [6], 32.5 µM. Besides, in data set [5], the “Luciferase IC50 (half-maximal inhibitory concentration)” value is reported as “Inactive”.
Regarding `CC(=O)c1ccc2ccc3ccccc3c2c1` [3-Acetylphenanthrene], in data set [1], the “CYP2D6 Efficacy (in parenthesis)” value was 88.85 ± 0 (-46 ± 10) % and the IC50 was found to be 88.9 µM. Moreover, in data set [2], the “CYP2C9 Efficacy (in parenthesis)” value is 11.64 ± 0.79 (-93 ± 2) % and the IC50 was 11.6 µM. Moreover, in data set [3], the “CYP1A2 Efficacy (in parenthesis)” value was 1.04 ± 0.13 (-97 ± 1) % and the IC50 was found to be 1.04 µM. Also, in data set [4], the “CYP2C19 Efficacy (in parenthesis)” value is 22.42 ± 2.58 (-138 ± 3) % and the IC50 came to 22.4 µM. Moreover, in data set [5], the “Luciferase Efficacy (in parenthesis)” value is 32.81 ± 2.22 (-56 ± 6) % and the IC50 was 32.8 µM. Further, in data set [6], the “CYP3A4 Efficacy (in parenthesis)” value is 48.54 ± 19.2 (-66 ± 4) % and the IC50 was determined as 48.5 µM.
Cimicifugoside: the “CYP2D6 IC50 (half-maximal inhibitory concentration)” value in data set [1] was “Inactive”. Also, the IC50 in data set [2] was determined as 41.1 µM; in data set [6], 0.89 µM. Further, the “CYP1A2 IC50 (half-maximal inhibitory concentration)” value in data set [3] is given as “Inactive”. The “CYP2C19 IC50 (half-maximal inhibitory concentration)” value in data set [4] is recorded as “Inactive”. Also, the “Luciferase IC50 (half-maximal inhibitory concentration)” value in data set [5] is reported as “Inactive”.
For `O=C(C(=O)c1ccc(Br)cc1)c1ccc(Br)cc1` [4,4'-Dibromobenzil], in data set [1], the “CYP2D6 IC50 (half-maximal inhibitory concentration)” value is reported as “Inactive”. Also, the “CYP2C9 IC50 (half-maximal inhibitory concentration)” value in data set [2] was “Inactive”. In data set [3], the “CYP1A2 Efficacy (in parenthesis)” value is listed as 9.92 ± 0 (-37 ± 3) % and the IC50 came to 9.92 µM. In data set [4], the “CYP2C19 Efficacy (in parenthesis)” value is recorded as 0.71 ± 0.31 (-137 ± 6) % and the IC50 turned out to be 0.71 µM. In addition, the “Luciferase IC50 (half-maximal inhibitory concentration)” value in data set [5] is on record as “Inactive”. Further, the “CYP3A4 IC50 (half-maximal inhibitory concentration)” value in data set [6] is listed as “Inactive”.
For `CCCC[P+](CC)(CCCC)CCCC.CCOP(=O)([O-])OCC`, the IC50 in data set [1] stood at 0.06 µM. The “CYP2C9 IC50” value in data set [2] was “Inactive”. In data set [3], the “CYP1A2 IC50” value is reported as “Inactive”. For the same molecule, the “CYP2C19 Efficacy” value in data set [4] is reported as 70.71 ± 33.56 (-88 ± 37) %. Also, the “Luciferase IC50” value in data set [5] is given as “Inactive”. The “CYP3A4 IC50” value in data set [6] is reported as “Inactive”.
In the case of `CC[N+]1(C)CCCC1.[I-]` [1-Ethyl-1-methylpyrrolidinium iodide], the results for the IC50 in data set [1], in data set [3] and in data set [4] were 0.01 µM, 75.5 µM and 26.7 µM, respectively. In addition, in data set [2], the “CYP2C9 IC50” value is “Inactive”. Also, the “Luciferase IC50” value in data set [5] is reported as “Inactive”. Further, in data set [6], the “CYP3A4 IC50” value is reported as “Inactive”.
Regarding `CCCC[P+](C)(CCCC)CCCC.COS(=O)(=O)[O-]` [Tributylmethylphosphonium methyl sulfate], the IC50 was determined as 0.24 µM in data set [1] and 63.3 µM in data set [4]. Moreover, in data set [2], the “CYP2C9 IC50” value is “Inactive”. Moreover, in data set [3], the “CYP1A2 IC50” value is “Inactive”. Moreover, the “Luciferase IC50” value in data set [5] is reported as “Inactive”. Also, the “CYP3A4 IC50” value in data set [6] is reported as “Inactive”.
On to `CCOC(=O)c1ccc(OC(=O)CCCCCN=C(N)N)cc1.CS(=O)(=O)O` [Gabexate mesilate], for which, in data set [1], half-maximal activity (AC50) was put at 0.27 µM and the “CYP2D6 Efficacy” value is 0.27 ± 0.04 (-102 ± 4) %. Moreover, in data set [2], the AC50 amounted to 10.3 µM and the “CYP2C9 Efficacy” value was 10.33 ± 4.77 (82 ± 30) %. In data set [3], the “CYP1A2 Efficacy” value is 20.14 ± 4.79 (-49 ± 20) % and the IC50 came out at 20.1 µM. In data set [4], the “CYP2C19 Efficacy” value was 10.33 ± 4.77 (-82 ± 30) % and the IC50 was determined as 10.3 µM. For the same molecule, the “Luciferase IC50 (half-maximal inhibitory concentration)” value in data set [5] is recorded as “Inactive”. Moreover, in data set [6], the AC50 is 21.2 µM and the “CYP3A4 IC50 (half-maximal inhibitory concentration)” value is on record as 21.25 ± 8.41 (37 ± 5) µM.
With `O=S(=O)([O-])C(F)(F)C(F)(F)C(F)(F)C(F)(F)C(F)(F)C(F)(F)C(F)(F)C(F)(F)F.[Li+]` [Lithium perfluorooctane sulfonate], the “CYP2D6 IC50 (half-maximal inhibitory concentration)” value in data set [1] was “Inactive”. For the same molecule, the IC50 in data set [2] came out at 0.48 µM; in data set [4], 86.1 µM. Also, the “CYP1A2 IC50 (half-maximal inhibitory concentration)” value in data set [3] was “Inactive”. In addition, in data set [5], the “Luciferase IC50 (half-maximal inhibitory concentration)” value is “Inactive”. For the same molecule, the “CYP3A4 IC50 (half-maximal inhibitory concentration)” value in data set [6] is given as “Inactive”.
Consider GW473178E methyl benzene sulphonic acid, for which the IC50 in data set [1] came to 23.1 µM; in data set [2] it was 5.86 µM; in data set [4], 46.9 µM; in data set [6] it was 0.8 µM. The “CYP1A2 IC50 (half-maximal inhibitory concentration)” value in data set [3] was “Inactive”. The “Luciferase IC50 (half-maximal inhibitory concentration)” value in data set [5] was “Inactive”.
As to `CN1[C@@H]2CCC(C)(C)[C@H]1C[C@H](OC(=O)C(O)(c1cccs1)c1cccs1)C2` [Mazaticol], the IC50 in data set [1] is 14.4 µM; in data set [6] it was 0.22 µM. Also, the “CYP2C9 IC50 (half-maximal inhibitory concentration)” value in data set [2] was “Inactive”. In data set [3], the “CYP1A2 IC50 (half-maximal inhibitory concentration)” value is “Inactive”. Further, the “CYP2C19 IC50 (half-maximal inhibitory concentration)” value in data set [4] was “Inactive”. The “Luciferase IC50 (half-maximal inhibitory concentration)” value in data set [5] is “Inactive”.
As for `CCCC[N+](C)(CCCC)CCCC.O=S(=O)([N-]S(=O)(=O)C(F)(F)F)C(F)(F)F`, the IC50 in data set [1] turned out to be 0.48 µM; in data set [2] it was 5.83 µM; in data set [3] it was 50.6 µM; in data set [6] it was 67.4 µM. Moreover, the “CYP2C19 IC50 (half-maximal inhibitory concentration)” value in data set [4] is reported as “Inactive”. Moreover, the “Luciferase IC50 (half-maximal inhibitory concentration)” value in data set [5] was “Inactive”.
Turning to `CCN(CC)CCOc1ccc(Cc2ccccc2)cc1.Cl` [Tesmilifene hydrochloride], the AC50 in data set [1] came out at 12.1 µM; in data set [4], 0.43 µM; in data set [6] it was 14.2 µM. The IC50 in data set [1] is 12.1 µM; in data set [4], 0.43 µM. Besides, in data set [2], the “CYP2C9 IC50 (half-maximal inhibitory concentration)” value was “Inactive”. Further, the “CYP1A2 IC50 (half-maximal inhibitory concentration)” value in data set [3] is on record as “Inactive”. Besides, the “Luciferase IC50 (half-maximal inhibitory concentration)” value in data set [5] is listed as “Inactive”. Further, the “CYP3A4 IC50 (half-maximal inhibitory concentration)” value in data set [6] was 14.21 ± 3.96 (44 ± 9) µM.
On to `CCc1cc(Cl)c(OC)c(C(=O)NC[C@@H]2CCCN2CC)c1O.Cl` [Eticlopride hydrochloride], for which, in data set [1], the “CYP2D6 Efficacy” value is recorded as 0.67 ± 0.09 (-96 ± 1) %. For the same molecule, the “CYP2C9 IC50 (half-maximal inhibitory concentration)” value in data set [2] is listed as “Inactive”. In addition, the IC50 in data set [3] stood at 13.5 µM. Moreover, in data set [4], the “CYP2C19 IC50 (half-maximal inhibitory concentration)” value is listed as “Inactive”. Moreover, the “Luciferase IC50 (half-maximal inhibitory concentration)” value in data set [5] is “Inactive”. Besides, the “CYP3A4 IC50 (half-maximal inhibitory concentration)” value in data set [6] is given as “Inactive”.
`CCOC(CN1CCN(CC(C)C(=O)c2ccccc2)CC1)c1ccccc1.Cl.Cl` (stereo not shown) [Eprazinone dihydrochloride]: the figures for the concentration at half-maximal activity (AC50) in data set [1], in data set [2] and in data set [6] were 0.2 µM, 11.5 µM and 15.2 µM, respectively. Besides, the results for the IC50 in data set [1] and in data set [2] were 0.2 µM and 11.5 µM, respectively. Besides, the “CYP1A2 IC50 (half-maximal inhibitory concentration)” value in data set [3] is recorded as “Inactive”. Besides, the “CYP2C19 IC50 (half-maximal inhibitory concentration)” value in data set [4] was “Inactive”. The “Luciferase IC50 (half-maximal inhibitory concentration)” value in data set [5] is “Inactive”. Also, the “CYP3A4 IC50 (half-maximal inhibitory concentration)” value in data set [6] is 15.16 ± 1.74 (64 ± 2) µM.
